Reference: patent US20240299400A1, “Transcription Factor GLI1 Inhibitors and Uses Thereof” (University of Connecticut, priority 2023, published 2024)
Like-named read-outs stand apart in the source and are kept apart here.

How the values were obtained:
RET = molecular target: T1, RET (Homo sapiens, UniProt P07949); experiment: ZLyte kinase assay, RET; format: biochemical; details: average of three replicates
T1 construct: purchased ThermoFisher Scientific (Madison, WI, USA), contract service
Description: (§1) Kinase screening experiments. Kinase inhibition/binding experiments were performed by ThermoFisher Scientific (Madison, WI, USA) as a contract service, utilizing their default protocols [G. Yernale, A comprehensive review on the biological interest of quinoline and its derivatives. Bioorg. Med. Chem. 32 (2021) 115973]. Briefly, for ZLyte assay, compound in DMSO (100 nL), kinase buffer (2.4 μL), peptide/kinase mixture (5 μL), and ATP solution (2.5 μL) were mixed in a black 384-well plate. Following a 30 s plate shake to mix reagents, the kinase assay mixture was incubated at RT for 60 min. Following addition of the development reagent solution to each well, another 60 min incubation was performed at RT for reaction development. Fluorescent signal was recorded and subsequently analyzed.

MAPK1 = molecular target: T2, MAPK1 (Homo sapiens, UniProt P28482); experiment: ZLyte kinase assay, MAPK1; format: biochemical; details: average of three replicates
T2 construct: purchased ThermoFisher Scientific (Madison, WI, USA), contract service
Description: as §1

GLI1 mRNA expression = experiment: RT-qPCR GLI1 mRNA expression in ASZ001 BCC cells; format: cell-based, mouse; details: Mus musculus, Ave ± SEM, read-out: RT-qPCR, IC50 ASZ001
DAOY (MB) = experiment: MTS anti-proliferative assay in DAOY cells; format: cell-based; details: Homo sapiens, Daoy; Table 8, 48 h, mean ± SEM
DYRKIA = molecular target: T3, DYRKIA (Homo sapiens, UniProt Q13627); experiment: ZLyte kinase assay, DYRKIA; format: biochemical; details: average of three replicates
T3 construct: purchased ThermoFisher Scientific (Madison, WI, USA), contract service
Description: as §1

GLI2 protein expression = experiment: Western blot GLI2 protein expression in ASZ001 cells; format: cell-based, murine; details: 25 μM
Description: (§2) ASZ001 cells were plated as described above and treated with drugs or vehicle control. Following incubation, cells were washed with chilled PBS and lysed with RIPA buffer containing […] PMSF protease inhibitor (Thermo Scientific #26978). Supernatant was collected following 15 min centrifugation at 12,000 rpm and 4° C. Protein concentrations from cell extracts were determined through the BCA kit (Pierce #23228) per the manufacturer's instructions. Proteins from either cell lysate or cell-free biochemical assay were then loaded on 12% SDS-PAGE. Following electrophoresis, proteins were transferred onto nitrocellulose membrane at 100 V for 120 min at 4° C. On a clean tray with constant gentle shaking, the membrane was sequentially submerged in 5% BSA for 1 h, and incubated with the primary antibody indicated overnight at 4° C. After washes with TBST, the appropriate secondary antibody was added to the tray for a 2 h incubation at RT. Chemiluminescent detection on film was visualized using ECL reagents (BioRad #1705060) and subsequently quantitated using Image J (http://imagej.nih.gov). Primary antibodies were used at 1:2000 dilution and are as follows: GLI1 (#MA5-32553); Gli2 (#PA5-79314); β-Actin (#PA1-16889). Secondary antibody (Goat anti-Rabbit, #32460) was used at a 1:5000 dilution. All antibodies were purchased from Invitrogen.

GLI1 protein levels = experiment: Western blot GLI1 protein expression in ASZ001 cells; format: cell-based, murine; details: 10 and 25 μM
Description: as §2

T2 sequence (P28482 whole entry): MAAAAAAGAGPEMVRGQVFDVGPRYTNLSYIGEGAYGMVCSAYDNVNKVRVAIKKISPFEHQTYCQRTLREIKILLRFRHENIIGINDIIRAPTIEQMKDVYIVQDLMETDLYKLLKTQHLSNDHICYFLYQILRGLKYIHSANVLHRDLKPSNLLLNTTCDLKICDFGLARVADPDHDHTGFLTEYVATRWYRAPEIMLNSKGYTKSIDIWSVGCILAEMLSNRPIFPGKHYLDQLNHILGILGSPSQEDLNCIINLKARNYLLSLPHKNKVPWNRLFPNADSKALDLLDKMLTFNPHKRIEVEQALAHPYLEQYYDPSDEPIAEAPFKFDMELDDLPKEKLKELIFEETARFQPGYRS
T1 sequence (P07949 29-1114): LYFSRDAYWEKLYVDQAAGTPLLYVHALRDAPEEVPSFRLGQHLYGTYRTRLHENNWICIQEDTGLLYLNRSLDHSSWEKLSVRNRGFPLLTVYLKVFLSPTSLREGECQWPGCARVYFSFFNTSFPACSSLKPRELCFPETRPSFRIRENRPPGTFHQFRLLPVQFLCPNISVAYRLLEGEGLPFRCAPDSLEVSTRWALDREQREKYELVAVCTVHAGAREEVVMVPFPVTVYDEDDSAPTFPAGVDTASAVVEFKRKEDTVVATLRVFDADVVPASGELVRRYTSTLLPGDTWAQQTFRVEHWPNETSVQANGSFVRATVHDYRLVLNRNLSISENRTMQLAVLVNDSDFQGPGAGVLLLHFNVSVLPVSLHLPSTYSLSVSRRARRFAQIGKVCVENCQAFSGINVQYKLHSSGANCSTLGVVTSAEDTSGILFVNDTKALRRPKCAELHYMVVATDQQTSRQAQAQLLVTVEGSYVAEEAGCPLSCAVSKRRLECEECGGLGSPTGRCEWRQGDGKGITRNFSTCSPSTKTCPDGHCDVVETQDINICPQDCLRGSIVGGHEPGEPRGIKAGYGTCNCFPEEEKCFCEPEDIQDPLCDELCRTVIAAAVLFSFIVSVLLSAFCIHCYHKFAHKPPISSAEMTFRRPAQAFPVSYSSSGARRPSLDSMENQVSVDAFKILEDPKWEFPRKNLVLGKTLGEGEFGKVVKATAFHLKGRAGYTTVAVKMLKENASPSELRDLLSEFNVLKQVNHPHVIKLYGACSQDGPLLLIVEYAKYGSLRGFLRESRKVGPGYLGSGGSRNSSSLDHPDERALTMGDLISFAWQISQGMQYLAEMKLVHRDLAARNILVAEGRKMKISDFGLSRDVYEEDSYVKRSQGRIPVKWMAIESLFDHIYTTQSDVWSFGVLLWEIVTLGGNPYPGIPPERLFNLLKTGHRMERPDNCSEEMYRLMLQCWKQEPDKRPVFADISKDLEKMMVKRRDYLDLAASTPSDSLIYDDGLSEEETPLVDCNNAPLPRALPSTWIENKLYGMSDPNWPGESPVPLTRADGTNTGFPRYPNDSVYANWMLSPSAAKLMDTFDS

| inhibition at 1 µM (RET) [%] | inhibition at 1 µM (MAPK1) [%] | IC50 (GLI1 mRNA expression; ASZ001, Table 5, GLI1 mRNA) [µM] | inhibition at 1 µM (DYRKIA) [%] | IC50 (GLI1 mRNA expression; ASZ001, Table 7, GLI1 mRNA) [µM] | Compound | GI50 (DAOY (MB)) [µM] | GLI2 protein expression (in words) (GLI2 protein expression) | GLI1 protein levels (in words) (GLI1 protein levels) |
| --- | --- | --- | --- | --- | --- | --- | --- | --- |
| 6 | 10 | 1.3 ± 0.3 | 4 | – | CCN(CC)c1ccc(C(Nc2ccccn2)c2ccc3ccc(C)nc3c2OC)cc1 (stereo not shown) [Compound 20, N-((4-Diethylaminophenyl)(8-methoxy-2-methylquinolin-7-yl)methyl)pyridin-2-amine] | > 100 | – | – |
| 8 | 7 | – | 6 | 1.9 ± 0.5 | Cc1ccc2ccc(C(Nc3ccccn3)c3ccncc3)c(O)c2n1 (stereo not shown) [Compound 39, 7-((Pyridin-4-yl)(pyridin-2-ylamino)methyl)-2-methylquinolin-8-ol] | 1.2 ± 0.2 | significantly suppressed | significantly reduced |
| 5 | 12 | – | 4 | 0.61 ± 0.34 | Cc1ccc2ccc(C(Nc3ccccn3)c3ccc(N4CCCC4=O)cc3)c(O)c2n1 (stereo not shown) [Compound 48, 7-((4-(2-Oxopyrrolidin-1-yl)phenyl)(pyridin-2-ylamino)methyl)-2-methylquinolin-8-ol] | 25 ± 2.3 | significantly suppressed | significantly reduced |
